# Like-named read-outs stand apart in the source and are kept apart here.
# Assays:
# physchem = conditions: pH 7, aqueous buffer, kinetic from dmso stock
# Method: Determination of the Kinetic Solubility in Phosphate Buffer
# After shaking for approximately 30 seconds the reduction in light transmission of these samples, at 650 nm, was measured (Molecular Devices Spectromax UV/visible spectrophotometer). A second measurement was taken at approximately 30 seconds later.
# [1] = Determination of thermodynamic solubility in phosphate buffer; assay type: physicochemical; conditions: pH 7.4, aqueous buffer, thermodynamic from solid, ammonium phosphate buffer pH7.4, 290 mOsm, 37° C., nominal 1 mg/mL, read-out: Solubility in PO4 buffer
# Outline: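 Compound at nominal 1 mg/mL in ammonium phosphate buffer (pH7.4, 290 mOsm), shaken 1 h at 37° C., then centrifuged 15,000 g for 10 minutes at 37° C. Supernatant concentration measured by LC-MS/MS against a calibration line from a DMSO stock.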
# Human plasma kallikrein = Human plasma kallikrein (Homo sapiens (Human), UniProt P03952); experiment: Determination of the IC50 for plasma kallikrein; assay type: biochemical; conditions: 37° C., read-out: IC50 (human PKal)
# Outline: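 Human plasma kallikrein incubated at 37° C with fluorogenic substrate H-DPro-Phe-Arg-AFC and varying compound concentrations. Initial reaction rate followed by absorbance change at 410 nm to give residual activity and IC50.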
# Human KLK1 = Human KLK1 (Homo sapiens (Human), UniProt P06870); experiment: Determination of the IC50 for KLK1; assay type: biochemical; conditions: Human KLK1, 37° C., substrate H-DVal-Leu-Arg-AFC
# Outline: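 IC50 values reflect residual human KLK1 activity, read as initial rate from optical absorbance change at 410 nm. Incubations ran at 37° C with H-DVal-Leu-Arg-AFC as substrate across a compound concentration series.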
# thrombin = thrombin (Homo sapiens (Human), UniProt P00734); experiment: Determination of enzyme selectivity: thrombin; assay type: biochemical; conditions: substrate at Km
# Source text: (§1) Determination of Enzyme Selectivity
# plasmin = plasmin (Homo sapiens (Human), UniProt P00747); experiment: Determination of enzyme selectivity: plasmin; assay type: biochemical; conditions: substrate at Km
# Source text: as §1
# Factor Xa = Factor Xa (Homo sapiens (Human), UniProt P00742); experiment: Determination of enzyme selectivity: Factor Xa; assay type: biochemical; conditions: substrate at Km
# Source text: as §1
# Factor XIIa = Factor XIIa (Homo sapiens (Human), UniProt P00748); experiment: Determination of enzyme selectivity: Factor XIIa; assay type: biochemical; conditions: fluorogenic substrate at Km concentration
# Method: as §1
# Human serine protease enzymes plasmin, thrombin, trypsin, Factor Xa and Factor XIIa were assayed for enzymatic activity using an appropriate fluorogenic substrate. Protease activity was measured by monitoring the accumulation of liberated fluorescence from the substrate over 5 minutes. The linear rate of fluorescence increase per minute was expressed as percentage (%) activity. The Km for the cleavage of each substrate was determined by standard transformation of the Michaelis-Menten equation.
# CA-I stimulated RVP = experiment: Carbonic anhydrase I induced retinal vascular permeability model; assay type: in vivo, Sprague Dawley rats; conditions: rat
# Method: Carbonic Anhydrase I Induced Retinal Vascular Permeability Model
# After 30 mins, a second intravitreal injection (5 μL) of PBS or CA-I (200 ng/eye) was given. After 15 minutes, 10% sodium fluorescein was infused and retinal vascular permeability (RVP) was measured by vitreous fluorophotometry 75 minutes following the initial IVT injections.
# [2] = Ocular and systemic pharmacokinetics following a single IVT dose; assay type: in vivo, pigmented (Dutch-belted) rabbits; conditions: rabbit
# Method: A pharmacokinetic study of Example 3 was performed to assess the ocular and systemic pharmacokinetics following a single IVT dose in pigmented (Dutch-belted) rabbits. […] Serial blood samples were collected in surviving rabbits.
# Ocular tissue concentration data are presented in FIG. 2, in which the solid line for each ocular tissue concentration is the average of the left and right eye of each rabbit.
# Human plasma kallikrein, sequence (P03952 391-638): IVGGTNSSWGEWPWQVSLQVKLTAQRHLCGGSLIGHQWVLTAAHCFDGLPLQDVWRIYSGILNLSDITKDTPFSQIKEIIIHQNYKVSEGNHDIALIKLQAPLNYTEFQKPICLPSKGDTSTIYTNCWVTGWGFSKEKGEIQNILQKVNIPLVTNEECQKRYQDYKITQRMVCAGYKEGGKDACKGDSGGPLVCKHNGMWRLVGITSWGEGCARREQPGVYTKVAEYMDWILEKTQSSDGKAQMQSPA
# Human plasma kallikrein, sequence (P03952 20-390 partner): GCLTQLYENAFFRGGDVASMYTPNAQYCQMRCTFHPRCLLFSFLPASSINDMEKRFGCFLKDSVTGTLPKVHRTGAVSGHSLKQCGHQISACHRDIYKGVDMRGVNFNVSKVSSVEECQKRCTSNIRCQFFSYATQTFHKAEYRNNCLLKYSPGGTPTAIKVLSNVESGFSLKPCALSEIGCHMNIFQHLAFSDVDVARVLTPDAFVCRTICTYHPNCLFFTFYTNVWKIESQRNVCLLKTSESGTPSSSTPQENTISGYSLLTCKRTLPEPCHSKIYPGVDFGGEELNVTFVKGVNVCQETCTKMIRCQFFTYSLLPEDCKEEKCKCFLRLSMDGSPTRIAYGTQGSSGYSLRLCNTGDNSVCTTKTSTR
# Human KLK1, sequence (P06870 25-262): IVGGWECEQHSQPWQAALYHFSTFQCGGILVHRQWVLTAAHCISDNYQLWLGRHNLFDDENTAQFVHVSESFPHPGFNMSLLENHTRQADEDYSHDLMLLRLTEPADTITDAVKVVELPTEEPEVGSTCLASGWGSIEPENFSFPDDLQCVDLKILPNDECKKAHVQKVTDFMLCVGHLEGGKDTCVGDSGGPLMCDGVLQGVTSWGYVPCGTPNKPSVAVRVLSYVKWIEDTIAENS
# Factor XIIa, sequence (P00748 373-615): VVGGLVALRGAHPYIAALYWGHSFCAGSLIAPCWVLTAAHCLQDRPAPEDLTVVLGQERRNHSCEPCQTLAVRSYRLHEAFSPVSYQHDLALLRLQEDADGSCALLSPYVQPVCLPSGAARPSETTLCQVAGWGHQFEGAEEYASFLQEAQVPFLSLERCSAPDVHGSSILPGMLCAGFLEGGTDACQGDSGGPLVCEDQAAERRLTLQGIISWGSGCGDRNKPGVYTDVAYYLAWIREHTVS
# plasmin, sequence (P00747 whole entry, looked up, change not shown): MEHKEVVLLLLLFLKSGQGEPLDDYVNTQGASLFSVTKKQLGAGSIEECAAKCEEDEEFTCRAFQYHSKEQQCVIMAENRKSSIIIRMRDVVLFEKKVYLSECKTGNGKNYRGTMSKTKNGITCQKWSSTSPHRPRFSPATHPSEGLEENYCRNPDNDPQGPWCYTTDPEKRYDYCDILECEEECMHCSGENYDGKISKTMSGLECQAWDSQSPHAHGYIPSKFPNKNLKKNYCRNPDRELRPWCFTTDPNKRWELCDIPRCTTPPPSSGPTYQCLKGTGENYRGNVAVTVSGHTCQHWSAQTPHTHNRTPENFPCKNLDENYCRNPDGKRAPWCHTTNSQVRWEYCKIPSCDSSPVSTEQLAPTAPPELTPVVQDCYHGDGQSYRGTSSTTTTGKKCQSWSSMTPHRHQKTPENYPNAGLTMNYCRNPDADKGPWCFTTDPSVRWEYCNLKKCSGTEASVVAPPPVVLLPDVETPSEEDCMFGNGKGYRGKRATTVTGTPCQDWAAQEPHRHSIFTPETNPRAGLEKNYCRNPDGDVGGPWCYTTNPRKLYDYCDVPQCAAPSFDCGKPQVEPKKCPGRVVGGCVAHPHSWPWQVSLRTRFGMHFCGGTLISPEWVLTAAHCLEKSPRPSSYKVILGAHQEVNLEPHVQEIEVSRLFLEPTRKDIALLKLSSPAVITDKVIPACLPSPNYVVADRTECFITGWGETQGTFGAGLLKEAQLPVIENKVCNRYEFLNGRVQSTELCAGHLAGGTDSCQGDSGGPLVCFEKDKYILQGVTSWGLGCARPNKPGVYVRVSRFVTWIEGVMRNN
# plasmin, sequence (P00747 whole entry partner, looked up): as the sequence (P00747 whole entry, looked up, change not shown) above
# Factor Xa, sequence (P00742 235-488): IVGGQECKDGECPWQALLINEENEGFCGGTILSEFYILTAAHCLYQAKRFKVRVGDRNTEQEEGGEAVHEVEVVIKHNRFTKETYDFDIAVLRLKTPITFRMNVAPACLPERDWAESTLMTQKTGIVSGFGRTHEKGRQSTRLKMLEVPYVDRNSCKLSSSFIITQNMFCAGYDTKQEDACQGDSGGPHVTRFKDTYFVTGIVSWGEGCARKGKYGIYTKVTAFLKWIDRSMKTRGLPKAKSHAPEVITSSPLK
# Factor Xa, sequence (P00742 41-179 partner): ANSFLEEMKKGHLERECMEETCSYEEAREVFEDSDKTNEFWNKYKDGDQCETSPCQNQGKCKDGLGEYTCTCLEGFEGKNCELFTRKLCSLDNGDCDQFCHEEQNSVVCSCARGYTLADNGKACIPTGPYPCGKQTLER
SMILES,solubility at 1 h [1] [µg/mL],IC50 (Factor XIIa) [µM],IC50 (Human plasma kallikrein; substrate H-DPro-Phe-Arg-AFC) [µM],IC50 (Human KLK1; Table 13) [µM],also measured
"CCOc1ccc(C[C@@H](NC(=O)c2ccccc2)C(=O)N[C@@H](Cc2ccccc2)C(=O)NCc2ccc(CN)cc2)cc1 [Example 3, N—[(R)-1-[(S)-1-(4-Aminomethyl-benzylcarbamoyl)-2-phenyl-ethylcarbamoyl]-2-(4-ethoxy-phenyl)-ethyl]-benzamide]",10,> 10,–,–,"solubility (physchem): 12 µM; IC50 (Human plasma kallikrein; fluorogenic substrate H-DPro-Phe-Arg-AFC): 0.022 µM; IC50 (Human KLK1; Table 12): > 10 µM; IC50 (thrombin): > 40 µM; IC50 (plasmin): 3.5 µM; IC50 (Factor Xa): > 10 µM; reduction of RVP stimulated by CA-I injection (CA-I stimulated RVP; intravitreal injection 1 μM (5 μL), CA-I 200 ng/eye, RVP measured at 75 minutes): 53±21%; basal RVP (CA-I stimulated RVP; intravitreal injection of 1 μM alone (no CA-I), PBS alone 3.64±0.48, no effect): 3.29±0.21; decline in ocular tissue concentrations ([2]; IVT 210 ng per eye, vitreous, retina/choroid, aqueous humour, over 7 days): minimal; Plasma concentrations following IVT administration ([2]; single bilateral IVT 210 ng per eye, all time points): below 1 ng/mL"
"CCOc1ccc(C[C@@H](NC(=O)c2ccccn2)C(=O)N[C@@H](Cc2cccs2)C(=O)NCc2ccc(CN)cc2)cc1 [Example 157, Pyridine-2-carboxylic acid [(R)-1-[(S)-1-(4-aminomethyl-benzylcarbamoyl)-2-thiophen-2-yl-ethylcarbamoyl]-2-(4-ethoxy-phenyl)-ethyl]-amide]",4.77,> 10,0.036,> 10,–
"CCOc1ccc(C[C@@H](NC(=O)c2sccc2N)C(=O)N[C@@H](Cc2cscn2)C(=O)NCc2ccc(CN)cc2)cc1 [Example 187, 3-Amino-thiophene-2-carboxylic acid [(R)-1-[(S)-1-(4-aminomethyl-benzylcarbamoyl)-2-thiazol-4-yl-ethylcarbamoyl]-2-(4-ethoxy-phenyl)-ethyl]-amide]",–,> 10,0.007,> 10,–
"CCOc1ccc(C[C@@H](NC(=O)c2[nH]c(C)cc2C)C(=O)N[C@@H](Cc2ccccc2)C(=O)NCc2ccc(CN)cc2)cc1 [Example 191, 3,5-Dimethyl-1H-pyrrole-2-carboxylic acid [(R)-1-[(S)-1-(4-aminomethyl-benzylcarbamoyl)-2-phenyl-ethylcarbamoyl]-2-(4-ethoxy-phenyl)-ethyl]-amide]",–,> 10,0.02,> 10,–
"CCOc1ccc(C[C@@H](NC(=O)/C=C/c2ccccc2)C(=O)N[C@@H](Cc2ccccc2)C(=O)NCc2ccc(CN)cc2)cc1 [Example 96, (E)-N-[(R)-1-[(S)-1-(4-Aminomethyl-benzylcarbamoyl)-2-phenyl-ethylcarbamoyl]-2-(4-ethoxy-phenyl)-ethyl]-3-phenyl-acrylamide]",–,> 10,0.764,> 10,–
"CCOc1ccc(C[C@@H](NC(=O)c2ccccc2)C(=O)N[C@@H](Cc2ccccc2)C(=O)NCc2ccc(CN)c(C)c2)cc1 [Example 182, N-[(R)-1-[(S)-1-(4-Aminomethyl-3-methyl-benzylcarbamoyl)-2-phenyl-ethylcarbamoyl]-2-(4-ethoxy-phenyl)-ethyl]-benzamide]",–,> 10,0.015,> 10,–
"CCOc1ccc(C[C@@H](NC(=O)c2ccccc2)C(=O)N[C@H](C(=O)NCc2ccc(CN)cc2)[C@H](O)c2ccccc2)cc1 [Example 197, N-[(R)-1-[(1S,2R)-1-(4-Aminomethyl-benzylcarbamoyl)-2-hydroxy-2-phenyl-ethylcarbamoyl]-2-(4-ethoxy-phenyl)-ethyl]-benzamide]",–,> 10,0.012,> 10,–

# The next lines start with results.
solubility at 1 h [1] [µg/mL],IC50 (Factor XIIa) [µM],IC50 (Human plasma kallikrein; substrate H-DPro-Phe-Arg-AFC) [µM],IC50 (Human KLK1; Table 13) [µM],SMILES,also measured
0.01,> 10,0.175,> 10,"CCOc1ccc(C[C@@H](NC(=O)c2ccc(Cl)c(Cl)c2)C(=O)N[C@@H](Cc2ccccc2)C(=O)NCc2ccc(CN)cc2)cc1 [Example 93, N-[(R)-1-[(S)-1-(4-Aminomethyl-benzylcarbamoyl)-2-phenyl-ethylcarbamoyl]-2-(4-ethoxy-phenyl)-ethyl]-3,4-dichloro-benzamide]",–
15.9,> 10,0.01,> 10,"CCOc1ccc(C[C@@H](NC(=O)c2ccc(C)cc2)C(=O)N[C@@H](Cc2cccnc2)C(=O)NCc2ccc(CN)cc2)cc1 [Example 199, N—[(R)-1-[(S)-1-(4-Aminomethyl-benzylcarbamoyl)-2-pyridin-3-yl-ethylcarbamoyl]-2-(4-ethoxy-phenyl)-ethyl]-4-methyl-benzamide]",–
–,> 10,0.028,> 10,"CCOc1ccc(C[C@@H](NC(=O)c2ccccc2C)C(=O)N[C@@H](Cc2cccnc2)C(=O)NCc2ccc(CN)cc2)cc1 [Example 190, N-[(R)-1-[(S)-1-(4-Aminomethyl-benzylcarbamoyl)-2-pyridin-3-yl-ethylcarbamoyl]-2-(4-ethoxy-phenyl)-ethyl]-2-methyl-benzamide]",–

# — patent US9234000B2, “Benzylamine derivatives as inhibitors of plasma kallikrein” (KalVista Pharmaceuticals Limited, priority 2011, dated 2016)
